Laboratory results taken from patent US7371742B2, “Porphyrin derivatives for photodynamic therapy” (Institut Curie, priority 2001, dated 2008).
Where two headings read alike, the source gives them in different places.

Columns and labels:
[1] = test system: L-1210 cells; assay: Cytotoxicity L-1210 (no light), cytostatic activity; type: cell-based, human; settings: no light; for Cytotoxicity L-1210 (no light), concentration giving 50%: 50% effect
Text: Column L1210 corresponds to the cytostatic activity.

[2] = test system: RBY-79 (indifferently named Y-79) cells; assay: RBY-79 (Y79) cell cytotoxicity / photocytotoxicity; settings: for Photocytotoxicity RBY-79, concentration giving 50%: with light; for cytotoxic for Y79 (in words): without light, remark of the inventors
Text: Columns HT29 and Y79 (═RBY79), without light, correspond to the cytotoxic activity.

[3] = test system: human colic adenocarcinoma cell line HT29; assay: HT29 cell survival (MTT assay) after 24 h incubation, with or without light irradiation; settings: for Photocytotoxicity HT 29, concentration giving 50%: 50% effect, with light; for cytotoxic for HT29 (in words): without light, remark of the inventors
Method: HT29 cells were cultivated in Dulbecco's MEM supplemented with 10% fetal calf serum (FCS). Cells from log-phase culture were seeded in 24-microwell plates (1 mL-5×10^4 cells/well) and kept at 37° C. in a water-jacketed incubator for 2 days under an air/CO2 atmosphere (5% CO2). Tested compounds, in DMSO solution, were added under the minimum volume (5 μL) to reach a concentration ranging from 0.1 to 10 μg/mL. Controls cells received 5 μL of DMSO free of dye. Plates were incubated 24 h, then medium was removed and the cells were washed twice with phosphate buffered saline (PBS) before addition of fresh medium free of drug and irradiation with visible light using a home made “light box” giving a fluence of 3.8 mW/cm^2 on the whole visible spectrum. Irradiation with red light was carried out using the same device fitted with an orange filter (0% T at 520 nm and 80% T at 590 nm) leading to a fluence of 2 mW/cm^2.
Plates were reincubated for 3 days before evaluation of the cell survival using the MTT assay (T. Mosmann, “Rapid calorimetric assay for cellular growth and survival. Application to proliferation assays”. J. Immunol. Methods 65,55-63,1983) using 30 min incubation with 100 μg well of 3-[4,5-dimethylthiazol-2-yl]-2,5-diphenyl tetrazolium bromide (MTT, Sigma). After removal of the medium, formazan crystals were taken up with 100 μL of DMSO and absorbance at 540 ni was measured with a Bio-Rad microplate reader (model 450); survival was expressed as % of untreated controls.

[4] = read-out: Y79 IC50 (μM) With 2J/cm^2, irradiation with filter (0% T at 520 nm, 80% T at 590 nm), 3.5 mW/cm^2, 10 min
[5] = read-out: Y79 IC50 (μM) without light, without light (cytotoxic activity)
[6] = read-out: HT 29 IC50 (μM) with 2J/cm^2, irradiation with filter (0% T at 520 nm, 80% T at 590 nm), 3.5 mW/cm^2, 10 min
[7] = read-out: HT 29 IC50 (μM) without light, without light (cytotoxic activity)

| Compound | IC50 [2, 4] | IC50 [2, 5] | IC50 [3, 6] | IC50 [3, 7] | further results |
| --- | --- | --- | --- | --- | --- |
| OC[C@H]1O[C@@H](Sc2c(F)c(F)c(-c3c4nc(c(-c5c(F)c(F)c(S[C@@H]6O[C@H](CO)[C@@H](O)[C@H](O)[C@H]6O)c(F)c5F)c5ccc([nH]5)c(-c5c(F)c(F)c(S[C@@H]6O[C@H](CO)[C@@H](O)[C@H](O)[C@H]6O)c(F)c5F)c5nc(c(-c6c(F)c(F)c(S[C@@H]7O[C@H](CO)[C@@H](O)[C@H](O)[C@H]7O)c(F)c6F)c6ccc3[nH]6)C=C5)C=C4)c(F)c2F)[C@H](O)[C@@H](O)[C@@H]1O [Compound 25, TPP F4(p-S-β-GluOH)4] | 4 µM | > 10 µM | > 10 µM | > 10 µM | Cytotoxicity L-1210 (no light), % at 10 μg/ml [1]: 18% 10 μg/ml; Photocytotoxicity RBY-79, concentration giving 50% ([2]; 50% effect): inactive; Photocytotoxicity HT 29, concentration giving 50% [3]: inactive |
| O[C@@H]1[C@@H](O)[C@H](Sc2c(F)c(F)c(-c3c4nc(c(-c5c(F)c(F)c(S[C@@H]6OC[C@@H](O)[C@H](O)[C@H]6O)c(F)c5F)c5ccc([nH]5)c(-c5c(F)c(F)c(S[C@@H]6OC[C@@H](O)[C@H](O)[C@H]6O)c(F)c5F)c5nc(c(-c6c(F)c(F)c(S[C@@H]7OC[C@@H](O)[C@H](O)[C@H]7O)c(F)c6F)c6ccc3[nH]6)C=C5)C=C4)c(F)c2F)OC[C@H]1O [Compound 27, TPP F4(p-S-β-XylOH)4] | 1 µM |  | 5 µM | > 10 µM | Cytotoxicity L-1210 (no light), concentration giving 50% [1]: 14 µg/mL; Photocytotoxicity RBY-79, concentration giving 50% ([2]; 50% effect): 50% 1.6 μg/ml; Y79 IC50 (μM) without light ([2]; without light (cytotoxic activity)): Inactive for μM; Photocytotoxicity HT 29, concentration giving 50% [3]: 7.5 µg/mL |
| O[C@@H]1[C@@H](O)[C@H](Sc2c(F)c(F)c(-c3c4nc(c(-c5c(F)c(F)c(S[C@@H]6OC[C@@H](O)[C@H](O)[C@H]6O)c(F)c5F)c5ccc([nH]5)c(-c5c(F)c(F)c(S[C@@H]6OC[C@@H](O)[C@H](O)[C@H]6O)c(F)c5F)c5nc(c(-c6c(F)c(F)c(F)c(F)c6F)c6ccc3[nH]6)C=C5)C=C4)c(F)c2F)OC[C@H]1O [Compound 28, TPP F4(p-S-β-XylOH)3] | 1.2 µM | > 10 µM | 2.6 µM | > 10 µM | Cytotoxicity L-1210 (no light), concentration giving 50% [1]: 50% 9 μg/ml; Photocytotoxicity RBY-79, concentration giving 50% ([2]; 50% effect): 1.7 µg/mL; Photocytotoxicity HT 29, concentration giving 50% [3]: 50% 3.7 μg/ml |
| OC[C@H]1O[C@H](Sc2c(F)c(F)c(-c3c4nc(c(-c5c(F)c(F)c(S[C@H]6O[C@H](CO)[C@@H](O)[C@H](O)[C@@H]6O)c(F)c5F)c5ccc([nH]5)c(-c5c(F)c(F)c(S[C@H]6O[C@H](CO)[C@@H](O)[C@H](O)[C@@H]6O)c(F)c5F)c5nc(c(-c6c(F)c(F)c(S[C@H]7O[C@H](CO)[C@@H](O)[C@H](O)[C@@H]7O)c(F)c6F)c6ccc3[nH]6)C=C5)C=C4)c(F)c2F)[C@@H](O)[C@@H](O)[C@@H]1O [Compound 29, TPP F4(p-S-α-MannOH)4] | 3.3 µM | > 10 µM | 2.4 µM | > 10 µM |  |
| OC[C@H]1O[C@H](Sc2c(F)c(F)c(/C3=c4\cc/c([nH]4)=C(\c4c(F)c(F)c(F)c(F)c4F)C4=NC(C=C4)[C@@H](c4c(F)c(F)c(F)c(F)c4F)c4ccc([nH]4)/C(c4c(F)c(F)c(S[C@H]5O[C@H](CO)[C@@H](O)[C@H](O)[C@@H]5O)c(F)c4F)=C4/C=CC3=N4)c(F)c2F)[C@@H](O)[C@@H](O)C1O (stereo partly shown) [Compound 31] |  |  |  |  | Photocytotoxicity RBY-79, % at 2 μg/ml [2]: 80% 2 μg/ml |
| OC[C@H]1O[C@H](Sc2c(F)c(F)c(-c3c4nc(c(-c5c(F)c(F)c(S[C@H]6O[C@H](CO)[C@@H](O)[C@H](O)[C@@H]6O)c(F)c5F)c5ccc([nH]5)c(-c5c(F)c(F)c(S[C@H]6O[C@H](CO)[C@@H](O)[C@H](O)[C@@H]6O)c(F)c5F)c5nc(c(-c6c(F)c(F)c(F)c(F)c6F)c6ccc3[nH]6)C=C5)C=C4)c(F)c2F)[C@@H](O)[C@@H](O)[C@@H]1O [Compound 33, TPP F4(p-S-α-MannOH)3] | 2.7 µM | > 10 µM | 1.7 µM | > 10 µM | Photocytotoxicity RBY-79, % at 2 μg/ml [2]: 90% 2 μg/ml |
| O[C@@H]1[C@@H](O)[C@H](SCc2ccc(-c3c4nc(c(-c5ccc(CS[C@@H]6OC[C@@H](O)[C@H](O)[C@H]6O)cc5)c5ccc([nH]5)c(-c5ccc(CS[C@@H]6OC[C@@H](O)[C@H](O)[C@H]6O)cc5)c5nc(c(-c6ccc(CS[C@@H]7OC[C@@H](O)[C@H](O)[C@H]7O)cc6)c6ccc3[nH]6)C=C5)C=C4)cc2)OC[C@H]1O [Compound 64, TPP(p-CH2-S-β-XylOH)4] |  | 3.8 µM | 4.5 µM | > 10 µM | Cytotoxicity L-1210 (no light), % at 10 μg/ml [1]: 32%; RBY-79, concentration giving 50% with light or not ([2]; 50% effect, with light or not): 50% at 7 μg/ml; Y79 IC50 (μM) With 2J/cm^2 ([2]; irradiation with filter (0% T at 520 nm, 80% T at 590 nm), 3.5 mW/cm^2, 10 min): Inactive; cytotoxic for Y79 (in words) [2]: cytotoxic; Photocytotoxicity HT 29, % at 10 μg/ml [3]: 30% at |
| OC[C@H]1O[C@H](SCc2ccc(-c3c4nc(c(-c5ccc(CS[C@H]6O[C@H](CO)[C@@H](O)[C@H](O)[C@@H]6O)cc5)c5ccc([nH]5)c(-c5ccc(CS[C@H]6O[C@H](CO)[C@@H](O)[C@H](O)[C@@H]6O)cc5)c5nc(c(-c6ccc(CS[C@H]7O[C@H](CO)[C@@H](O)[C@H](O)[C@@H]7O)cc6)c6ccc3[nH]6)C=C5)C=C4)cc2)[C@@H](O)[C@@H](O)[C@@H]1O [Compound 66, TPP(p-CH2-S-α-MannOH)4] | 15 µM | 28 µM | 10 µM | 21 µM | Cytotoxicity L-1210 (no light), % at 10 μg/ml [1]: 0% 10 μg/ml; Photocytotoxicity RBY-79, % at 10 μg/ml ([2]; 10 μg/ml): 20%; Photocytotoxicity HT 29, % at 10 μg/ml [3]: 40% |
| OC[C@H]1O[C@H](OCCOCCOc2ccc(-c3c4nc(c(-c5ccc(OCCOCCO[C@H]6O[C@H](CO)[C@@H](O)[C@H](O)[C@@H]6O)cc5)c5ccc([nH]5)c(-c5ccc(OCCOCCO[C@H]6O[C@H](CO)[C@@H](O)[C@H](O)[C@@H]6O)cc5)c5nc(c(-c6ccccc6)c6ccc3[nH]6)C=C5)C=C4)cc2)[C@@H](O)[C@@H](O)[C@@H]1O [Compound 67, TPP(p-O-DEG-O-α-Mann)3] | 0.3 ± 0.08 µM | > 10 µM | 0.7 ± 0.4 µM | > 10 µM | Cytotoxicity L-1210 (no light), concentration giving 50% [1]: 50% 8 μg/ml; Photocytotoxicity RBY-79, % at 1 μg/ml ([2]; 1 μg/ml): 0% at 1 μg/ml; Photocytotoxicity RBY-79, % at 2 μg/ml [2]: 80% at 2 μg/ml,; Photocytotoxicity RBY-79, concentration giving 50% ([2]; 50% effect): 50% at 1.5 μg/ml,; Photocytotoxicity HT 29, concentration giving 50% [3]: 1.5 µg/mL |
| OC[C@H]1O[C@H](SCCOCCOCCOc2ccc(-c3c4nc(c(-c5ccc(OCCOCCOCCS[C@H]6O[C@H](CO)[C@@H](O)[C@H](O)[C@@H]6O)cc5)c5ccc([nH]5)c(-c5ccc(OCCOCCOCCS[C@H]6O[C@H](CO)[C@@H](O)[C@H](O)[C@@H]6O)cc5)c5nc(c(-c6ccccc6)c6ccc3[nH]6)C=C5)C=C4)cc2)[C@@H](O)[C@@H](O)[C@@H]1O [Compound 74, 5,10,15-tri(para-10-S-α-D-thiomanosyloxy-O-triethylene glycoloxyphenyl)-20-phenylporphyrin] | 0.5 ± 0.3 µM | 11 ± 5 µM | 4.8 µM | 10.5 µM |  |
| OC[C@H]1O[C@@H](Oc2ccc(-c3c4nc(c(-c5ccc(O[C@@H]6O[C@H](CO)[C@@H](O)[C@H](O)[C@H]6O)cc5)c5ccc([nH]5)c(-c5ccc(O[C@@H]6O[C@H](CO)[C@@H](O)[C@H](O)[C@H]6O)cc5)c5nc(c(-c6ccccc6)c6ccc3[nH]6)C=C5)C=C4)cc2)[C@H](O)[C@@H](O)[C@@H]1O [TPP(p-O-β-GluOH)3, reference compound] | 0.9 µM | > 15 µM | 1.5 ± 0.2 µM | > 15 µM |  |
| OC[C@H]1O[C@@H](Oc2ccc(-c3c4nc(c(-c5ccc(O[C@@H]6O[C@H](CO)[C@@H](O)[C@H](O)[C@H]6O)cc5)c5ccc([nH]5)c(-c5ccc(O[C@@H]6O[C@H](CO)[C@@H](O)[C@H](O)[C@H]6O)cc5)c5nc(c(-c6ccc(O[C@@H]7O[C@H](CO)[C@@H](O)[C@H](O)[C@H]7O)cc6)c6ccc3[nH]6)C=C5)C=C4)cc2)[C@H](O)[C@@H](O)[C@@H]1O [TPP(p-O-β-GluOH)4, reference compound] | 5.2 ± 4 µM | 7 ± 4 µM | > 10 µM | > 10 µM |  |
| Oc1ccc(-c2c3nc(c(-c4ccc(O)cc4)c4ccc([nH]4)c(-c4ccc(O)cc4)c4nc(c(-c5ccccc5)c5ccc2[nH]5)C=C4)C=C3)cc1 [TPP(p-OH)3, reference compound] | 1.8 ± 0.1 µM | > 10 µM | 1.65 ± 0.07 µM | > 15 µM |  |
| Oc1ccc(-c2c3nc(c(-c4ccc(O)cc4)c4ccc([nH]4)c(-c4ccc(O)cc4)c4nc(c(-c5ccc(O)cc5)c5ccc2[nH]5)C=C4)C=C3)cc1 [TPP(p-OH)4, reference compound] | 0.3 µM | 4.7 ± 2.5 µM | 0.8 ± 1 µM | 7.75 ± 3 µM | cytotoxic for Y79 (in words) [2]: cytotoxic; cytotoxic for HT29 (in words) [3]: cytotoxic |
| Oc1cccc(-c2c3nc(c(-c4cccc(O)c4)c4ccc([nH]4)c(-c4cccc(O)c4)c4nc(c(-c5cccc(O)c5)c5ccc2[nH]5)CC4)C=C3)c1 [m-THPC, reference compound] |  |  |  |  | IC50 ([2]; Homo sapiens, Y79, light or radiation study, 10 min, read-out: Y79 IC50 (μM) With 2J/cm^2): 0.6 ± 0.03 µM; IC50 ([2]; Homo sapiens, Y79, read-out: Y79 IC50 (μM) without light): > 10 µM; cytotoxic for Y79 (in words) [2]: cytotoxic; IC50 ([3]; Homo sapiens, HT-29, light or radiation study, 10 min, read-out: HT 29 IC50 (μM) with 2J/cm^2): 0.8 ± 0.3 µM; IC50 ([3]; Homo sapiens, HT-29, read-out: HT 29 IC50 (μM) without light): > 10 µM; cytotoxic for HT29 (in words) [3]: cytotoxic |
| TPPF4(p-O-β-GluOH)4 [Compound 63] | > 10 µM | > 10 µM | > 10 µM | > 10 µM | Photocytotoxicity RBY-79, % at 10 μg/ml white light ([2]; 10 μg/ml, white light): 37% |
